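Five concentrations, 48 hours, 96-well plates. TGI: total growth inhibition.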
Tests used:
Assay in all cases: NCI tumour cell line growth inhibition, 48 h
SF-268 CNS = system: SF-268 CNS
OVCAR-8 ovarian = system: OVCAR-8 ovarian
HOP-62 NSCLC = system: HOP-62 NSCLC
NCI-H522 lung = system: NCI-H522 lung
SNB-75 CNS = system: SNB-75 CNS
MCF7 breast = system: MCF7 breast
SF-539 CNS = system: SF-539 CNS
HL-60(TB) leukemia = system: HL-60(TB) leukemia
SK-MEL-5 melanoma = system: SK-MEL-5 melanoma
P388 leukemia = system: P388 leukemia
CAKI-1 renal = system: CAKI-1 renal
K-562 leukemia = system: K-562 leukemia
HCT-15 colon = system: HCT-15 colon
SNB-78 CNS = system: SNB-78 CNS
SF-295 CNS = system: SF-295 CNS
HCC-2998 colon = system: HCC-2998 colon
UO-31 renal = system: UO-31 renal
RPMI-8226 leukemia = system: RPMI-8226 leukemia
OVCAR-5 ovarian = system: OVCAR-5 ovarian
OVCAR-3 ovarian = system: OVCAR-3 ovarian
COLO 205 colon = system: COLO 205 colon
SN12K1 renal = system: SN12K1 renal
SK-MEL-2 melanoma = system: SK-MEL-2 melanoma
KM20L2 colon = system: KM20L2 colon
SW-620 colon = system: SW-620 colon
DMS 114 small cell lung = system: DMS 114 small cell lung
U251 CNS = system: U251 CNS
NCI-H23 lung = system: NCI-H23 lung
NCI-H226 lung = system: NCI-H226 lung
SNB-19 CNS = system: SNB-19 CNS
CCRF-CEM leukemia = system: CCRF-CEM leukemia
UACC-257 melanoma = system: UACC-257 melanoma
DMS 273 small cell lung = system: DMS 273 small cell lung
UACC-62 melanoma = system: UACC-62 melanoma
EKVX NSCLC = system: EKVX NSCLC
KM12 colon = system: KM12 colon
M19-MEL melanoma = system: M19-MEL melanoma
IGROV1 ovarian = system: IGROV1 ovarian
SK-MEL-28 melanoma = system: SK-MEL-28 melanoma
HOP-18 NSCLC = system: HOP-18 NSCLC
OVCAR-4 ovarian = system: OVCAR-4 ovarian
NCI/ADR-RES ovarian = system: NCI/ADR-RES ovarian
MOLT-4 leukemia = system: MOLT-4 leukemia
HT29 colon = system: HT29 colon
HOP-92 NSCLC = system: HOP-92 NSCLC
A549 NSCLC = system: A549 NSCLC
P388/ADR leukemia = system: P388/ADR leukemia
NCI-H460 lung = system: NCI-H460 lung
DLD-1 colon = system: DLD-1 colon
A498 renal = system: A498 renal
HCT-116 colon = system: HCT-116 colon
SK-OV-3 ovarian = system: SK-OV-3 ovarian
LOX IMVI melanoma = system: LOX IMVI melanoma
SN12C renal = system: SN12C renal
RXF 393 renal = system: RXF 393 renal
786-0 renal = system: 786-0 renal
LXFL 529 NSCLC = system: LXFL 529 NSCLC
SR leukemia = system: SR leukemia
ACHN renal = system: ACHN renal
XF 498 CNS = system: XF 498 CNS
RXF-631 renal = system: RXF-631 renal
MALME-3M melanoma = system: MALME-3M melanoma
M14 melanoma = system: M14 melanoma
TK-10 renal = system: TK-10 renal

**Q.** For `O=C1NC(=O)C2(CCc3ccc(N(CCCl)CCCl)cc32)N1` (stereo unspecified), which TGI (SF-268 CNS) is on record?
**A.** 73.5 µM

**Q.** And the TGI (OVCAR-8 ovarian)?
**A.** 36.2 µM

**Q.** What about the TGI (HOP-62 NSCLC) of the same compound?
**A.** 35.5 µM

**Q.** What about the TGI (NCI-H522 lung) of the same compound?
**A.** 20.3 µM

**Q.** What about the TGI (SNB-75 CNS) of the same compound?
**A.** 26.3 µM

**Q.** And the TGI (MCF7 breast)?
**A.** 61.4 µM

**Q.** And the TGI (SF-539 CNS)?
**A.** 22.2 µM

**Q.** And the TGI (HL-60(TB) leukemia)?
**A.** 9.75 µM

**Q.** And the TGI (SK-MEL-5 melanoma)?
**A.** 26.6 µM

**Q.** And the TGI (P388 leukemia)?
**A.** 15.5 µM

**Q.** And the TGI (CAKI-1 renal)?
**A.** > 47.9 µM

**Q.** And the TGI (K-562 leukemia)?
**A.** > 100 µM

**Q.** And the TGI (HCT-15 colon)?
**A.** 49 µM

**Q.** And the TGI (SNB-78 CNS)?
**A.** > 100 µM

**Q.** What about the TGI (SF-295 CNS) of the same compound?
**A.** > 61.5 µM

**Q.** What about the TGI (HCC-2998 colon) of the same compound?
**A.** 34.1 µM

**Q.** What about the TGI (UO-31 renal) of the same compound?
**A.** 48 µM

**Q.** And the TGI (RPMI-8226 leukemia)?
**A.** 99.2 µM

**Q.** And the TGI (OVCAR-5 ovarian)?
**A.** 50.2 µM

**Q.** What about the TGI (OVCAR-3 ovarian) of the same compound?
**A.** 41.4 µM

**Q.** What about the TGI (COLO 205 colon) of the same compound?
**A.** 17.5 µM

**Q.** What about the TGI (SN12K1 renal) of the same compound?
**A.** 37.1 µM

**Q.** What about the TGI (SK-MEL-2 melanoma) of the same compound?
**A.** 43.4 µM

**Q.** What about the TGI (KM20L2 colon) of the same compound?
**A.** 42.8 µM

**Q.** And the TGI (SW-620 colon)?
**A.** 61.9 µM

**Q.** What about the TGI (DMS 114 small cell lung) of the same compound?
**A.** 26 µM

**Q.** What about the TGI (U251 CNS) of the same compound?
**A.** 33 µM

**Q.** And the TGI (NCI-H23 lung)?
**A.** 26.2 µM

**Q.** And the TGI (NCI-H226 lung)?
**A.** 21.7 µM

**Q.** And the TGI (SNB-19 CNS)?
**A.** > 84.7 µM

**Q.** And the TGI (CCRF-CEM leukemia)?
**A.** > 79.7 µM

**Q.** And the TGI (UACC-257 melanoma)?
**A.** 45.2 µM

**Q.** What about the TGI (DMS 273 small cell lung) of the same compound?
**A.** 16 µM

**Q.** What about the TGI (UACC-62 melanoma) of the same compound?
**A.** 15.8 µM

**Q.** And the TGI (EKVX NSCLC)?
**A.** 16.4 µM

**Q.** What about the TGI (KM12 colon) of the same compound?
**A.** > 84.1 µM

**Q.** What about the TGI (M19-MEL melanoma) of the same compound?
**A.** 39.5 µM

**Q.** And the TGI (IGROV1 ovarian)?
**A.** 34.6 µM

**Q.** What about the TGI (SK-MEL-28 melanoma) of the same compound?
**A.** 38.1 µM

**Q.** What about the TGI (HOP-18 NSCLC) of the same compound?
**A.** 64.4 µM

**Q.** And the TGI (OVCAR-4 ovarian)?
**A.** 41.4 µM

**Q.** And the TGI (NCI/ADR-RES ovarian)?
**A.** 40.6 µM

**Q.** What about the TGI (MOLT-4 leukemia) of the same compound?
**A.** 49.8 µM

**Q.** And the TGI (HT29 colon)?
**A.** 59.3 µM

**Q.** And the TGI (HOP-92 NSCLC)?
**A.** 39.7 µM

**Q.** And the TGI (A549 NSCLC)?
**A.** > 65 µM

**Q.** And the TGI (P388/ADR leukemia)?
**A.** 36.7 µM

**Q.** What about the TGI (NCI-H460 lung) of the same compound?
**A.** 23.8 µM

**Q.** And the TGI (DLD-1 colon)?
**A.** > 81.8 µM

**Q.** What about the TGI (A498 renal) of the same compound?
**A.** 33.1 µM

**Q.** And the TGI (HCT-116 colon)?
**A.** 31.7 µM

**Q.** What about the TGI (SK-OV-3 ovarian) of the same compound?
**A.** 47 µM

**Q.** And the TGI (LOX IMVI melanoma)?
**A.** 26.5 µM

**Q.** And the TGI (SN12C renal)?
**A.** > 100 µM

**Q.** What about the TGI (RXF 393 renal) of the same compound?
**A.** 22.5 µM

**Q.** What does the source list for `O=S1Cc2ccccc2CSS1` (stereo unspecified)?
**A.** TGI (786-0 renal): 29.1 µM; TGI (LXFL 529 NSCLC): 27.2 µM; TGI (SF-268 CNS): 74.2 µM; TGI (OVCAR-8 ovarian): 27.6 µM; TGI (NCI-H522 lung): 19.4 µM; TGI (SR leukemia): 51.2 µM; TGI (SNB-75 CNS): 43.4 µM; TGI (SF-539 CNS): 29.8 µM; TGI (HL-60(TB) leukemia): 20 µM; TGI (SK-MEL-5 melanoma): 26.3 µM; TGI (CAKI-1 renal): 35.8 µM; TGI (K-562 leukemia): 38.1 µM; TGI (HCT-15 colon): 28.1 µM; TGI (SNB-78 CNS): 62 µM; TGI (SF-295 CNS): 37.9 µM; TGI (HCC-2998 colon): 73.7 µM; TGI (ACHN renal): 30.9 µM; TGI (UO-31 renal): 32.6 µM; TGI (RPMI-8226 leukemia): 39.8 µM; TGI (OVCAR-5 ovarian): 37.4 µM; TGI (OVCAR-3 ovarian): 31.1 µM; TGI (COLO 205 colon): 27.3 µM; TGI (XF 498 CNS): 34 µM; TGI (KM20L2 colon): 41.9 µM; TGI (SW-620 colon): 27.2 µM; TGI (DMS 114 small cell lung): 34.6 µM; TGI (U251 CNS): 31.9 µM; TGI (NCI-H23 lung): 28.1 µM; TGI (NCI-H226 lung): 55.4 µM; TGI (SNB-19 CNS): > 100 µM; TGI (UACC-257 melanoma): 29.1 µM; TGI (DMS 273 small cell lung): 24.1 µM; TGI (UACC-62 melanoma): 26.5 µM; TGI (EKVX NSCLC): 53.9 µM; TGI (KM12 colon): 31.6 µM; TGI (M19-MEL melanoma): 44.9 µM; TGI (IGROV1 ovarian): > 100 µM; TGI (SK-MEL-28 melanoma): 26.8 µM; TGI (HOP-18 NSCLC): 89.1 µM; TGI (OVCAR-4 ovarian): 31.7 µM; TGI (MOLT-4 leukemia): 52.1 µM; TGI (HT29 colon): 32.1 µM; TGI (HOP-92 NSCLC): 31.8 µM; TGI (A549 NSCLC): 46.7 µM; TGI (NCI-H460 lung): 32.9 µM; TGI (DLD-1 colon): 41.1 µM; TGI (A498 renal): > 100 µM; TGI (HCT-116 colon): 28.3 µM; TGI (RXF-631 renal): 48.5 µM; TGI (MALME-3M melanoma): 26.2 µM; TGI (SK-OV-3 ovarian): > 100 µM; TGI (LOX IMVI melanoma): 17.3 µM; TGI (M14 melanoma): 27 µM; TGI (SN12C renal): 29.4 µM; TGI (TK-10 renal): 33.2 µM; TGI (RXF 393 renal): 13.8 µM
